Experimental data from US10633419B2, “Immunomodulators” (BRISTOL-MYERS SQUIBB COMPANY, priority 2014, dated 2020).
Starred links: 1 amine or outer side, 2 acyl side, 3 side chain; linkers in the order of their positions; H or OH if unused. Positions of bridges follow the written chain, without caps; N, C: chain ends. Non-standard residues stand in square brackets, D forms with d. Residues, ends and D or L forms follow the SMILES beside them. *: point of attachment. X29 = O=C(O)CCCCCCCCCCCCCCCCC(=O)N[C@H](CCC(=O)NCCCC[C@@H](NC(=O)NCC(=O)[C@H](CSCC(=O)[*:1])N[*:2])C(=O)O)C(=O)O; X4 = O=C(O)CCCCCCCCCCCCCCCCC(=O)N[C@@H](CC(=O)NCCCOCCOCCOCCCN*)C(=O)O; X18 = O=C(O)CCCCCCCCCCCCCCC(=O)N[C@@H](CC(=O)NCCCOCCOCCOCCCN*)C(=O)O; Trp(1-CH2COOH) = N[C@@H](Cc1cn(CC(=O)O)c2ccccc12)C(=O)O; X9 = O=C(O)CCCCCCCCCCCCCCCCC(=O)N[C@@H](CCN*)C(=O)O; βAsp = O=C(O)[C@H](CC(=O)[*:2])N[*:1]; X19 = O=C(C1C[C@H](O)CN1[*:1])[*:2]; Palmitoyl = CCCCCCCCCCCCCCCC(=O)*; Hyp = O=C(O)[C@@H]1C[C@@H](O)CN1; dHyp = O=C(O)[C@H]1C[C@H](O)CN1; Undecanoyl = CCCCCCCCCCC(=O)*; NMeNle = CCCC[C@H](NC)C(=O)O; Pip = O=C(O)[C@@H]1CCCCN1; NMeA = CN[C@@H](C)C(=O)O; Dab = NCC[C@H](N)C(=O)O; Dap = NC[C@H](N)C(=O)O; AEA = NCCOCC(=O)O

target: T1, PD-L1 (Homo sapiens, UniProt Q9NZQ7); assay: PD-1/PD-L1 Homogenous Time-Resolved Fluorescence (HTRF) binding assay (PD-1-Ig/PD-L1-His); conditions: inhibition of PD-1-Ig binding to PD-L1-TVMV-His; value given as range class; read-out: HTRF IC50
T1 construct: hPDL1(19-239)-TVMV-His; made in house; host or cells: HEK293T
Description: The ability of the macrocyclic peptides of the present disclosure to bind to PD-L1 was investigated using a PD-1/PD-L1 Homogenous Time-Resolved Fluorescence (HTRF) binding assay.
Homogenous Time-Resolved Fluorescence (HTRF) Assays of Binding of Soluble PD-1 to Soluble PD-L1. Soluble PD-1 and soluble PD-L1 refers to proteins with carboxyl-end truncations that remove the transmembrane-spanning regions and are fused to heterologous sequences, specifically the Fc portion of the human immunoglobuling G sequence (Ig) or the hexahistidine epitope tag (His). All binding studies were performed in an HTRF assay buffer consisting of dPBS supplemented with 0.1% (w/v) bovine serum albumin and 0.05% (v/v) Tween-20. For the PD-1-Ig/PD-L1-His binding assay, inhibitors were pre-incubated with PD-L1-His (10 nM final) for 15 m in 4 μl of assay buffer, followed by addition of PD-1-Ig (20 nM final) in 1 μl of assay buffer and further incubation for 15m. PD-L1 fusion proteins from either human, cynomologous macaques, mouse, or other species were used. HTRF detection was achieved using europium crypate-labeled anti-Ig monoclonal antibody (1 nM final) and allophycocyanin (APC) labeled anti-His monoclonal antibody (20 nM final). Antibodies were diluted in HTRF detection buffer and 5 μl was dispensed on top of binding reaction. The reaction was allowed to equilibrate for 30 minutes and signal (665 nm/620 nm ratio) was obtained using an EnVision fluorometer. Additional binding assays were established between PD-1-Ig/PD-L2-His (20 and 5 nM, respectively), CD80-His/PD-L1-Ig (100 and 10 nM, respectively) and CD80-His/CTLA4-Ig (10 and 5 nM, respectively). Binding/competition studies between biotinylated Compound No. 71 and human PD-L1-His were performed as follows. Macrocyclic peptide inhibitors were pre-incubated with PD-L1-His (10 nM final) for 60 minutes in 4 μl of assay buffer followed by addition of biotinylated Compound No. 71 (0.5 nM final) in 1 μl of assay buffer. Binding was allowed to equilibrate for 30 minutes followed by addition of europium crypated labeled Streptavidin (2.5 pM final) and APC-labeled anti-His (20 nM final) in 5 μl of HTRF buffer. The reaction was allowed to equilibrate for 30m and signal (665 nm/620 nm ratio) was obtained using an EnVision fluorometer.
Recombinant Proteins. Carboxyl-truncated human PD-1 (amino acids 25-167) with a C-terminal human Ig epitope tag [hPD-1 (25-167)-3S-IG] and human PD-L1 (amino acids 18-239) with a C-terminal His epitope tag [hPD-L1(19-239)-tobacco vein mottling virus protease cleavage site (TVMV)-His] were expressed in HEK293T cells and purified sequentially by recombinant Protein A affinity chromatography and size exclusion chromatography. Human PD-L2-His (Sino Biologicals), CD80-His (Sino Biologicals), CTLA4-Ig (RnD Systems) were all obtained through commercial sources.

T1 sequence (Q9NZQ7 with tags, fused parts or gaps): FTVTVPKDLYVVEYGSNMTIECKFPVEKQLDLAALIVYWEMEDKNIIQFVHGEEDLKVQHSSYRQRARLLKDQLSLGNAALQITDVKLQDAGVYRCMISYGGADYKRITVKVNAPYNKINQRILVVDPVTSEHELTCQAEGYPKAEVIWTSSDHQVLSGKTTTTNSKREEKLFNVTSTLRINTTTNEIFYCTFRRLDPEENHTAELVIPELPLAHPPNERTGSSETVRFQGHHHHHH

Row | SMILES | IC50
1 | CCCC[C@H]1C(=O)N(C)[C@@H](CCCC)C(=O)N[C@@H](CC(C)C)C(=O)N[C@@H](C(=O)NCC(=O)N[C@@H](CC(=O)O)C(=O)NCCCOCCOCCOCCCNC(=O)C[C@H](NC(=O)CCCCCCCCCCCCCCCCC(=O)O)C(=O)O)CSCC(=O)N[C@@H](Cc2ccc(O)cc2)C(=O)N(C)[C@@H](C)C(=O)N[C@@H](CC(N)=O)C(=O)N2CCC[C@@H]2C(=O)N[C@@H](CN)C(=O)N[C@@H](CC(C)C)C(=O)N2C[C@@H](O)C[C@@H]2C(=O)N[C@@H](Cc2c[nH]c3ccccc23)C(=O)N[C@@H](CCN)C(=O)N[C@@H](Cc2cn(CC(=O)O)c3ccccc23)C(=O)N1C [Example 11237] ({CH2CO}-Y[NMeA]N[dP][Dap]L[dHyp]W[Dab][Trp(1-CH2COOH)][NMeNle][NMeNle]L[dC]GD-X4; thioether N-14) | 10 to 99 nM
2 | CCCCCCCCCCCCCCCC(=O)NCCCC[C@H](NC(=O)[C@H](CC(=O)O)NC(=O)CNC(=O)[C@@H]1CSCC(=O)N[C@@H](Cc2ccc(O)cc2)C(=O)N(C)[C@@H](C)C(=O)N[C@@H](CC(N)=O)C(=O)N2CCC[C@H]2C(=O)N[C@@H](CCN)C(=O)N[C@@H](CC(C)C)C(=O)N2C[C@H](O)C[C@H]2C(=O)N[C@@H](Cc2c[nH]c3ccccc23)C(=O)N[C@@H](CO)C(=O)N[C@@H](Cc2c[nH]c3ccccc23)C(=O)N(C)[C@@H](CCCC)C(=O)N(C)[C@@H](CCCC)C(=O)N[C@@H](CCCNC(=N)N)C(=O)N1)C(N)=O [Example 11027] ({CH2CO}-Y[NMeA]NP[Dab]L[Hyp]WSW[NMeNle][NMeNle]RCGDK(Palmitoyl)-NH2; thioether N-14) | 100 to 1600 nM
3 | CCCC[C@H]1C(=O)N(C)[C@@H](CCCC)C(=O)N[C@@H](CC(C)C)C(=O)N[C@H](C(=O)CNC(=O)N[C@H](CCCCNC(=O)CC[C@@H](NC(=O)CCCCCCCCCCCCCCCCC(=O)O)C(=O)O)C(=O)O)CSCC(=O)N[C@@H](Cc2ccc(O)cc2)C(=O)N(C)[C@@H](C)C(=O)N[C@@H](CC(N)=O)C(=O)N2CCC[C@H]2C(=O)N[C@@H](CN)C(=O)N[C@@H](CC(C)C)C(=O)N2C[C@H](O)C[C@H]2C(=O)N[C@@H](Cc2c[nH]c3ccccc23)C(=O)N[C@@H](CCN)C(=O)N[C@@H](Cc2cn(CC(=O)O)c3ccccc23)C(=O)N1C [Example 11134] (Y[NMeA]NP[Dap]L[Hyp]W[Dab][Trp(1-CH2COOH)][NMeNle][NMeNle]L; linker N-C via X29) | 10 to 99 nM
4 | CCCC[C@H]1C(=O)N(C)[C@@H](CCCC)C(=O)N[C@@H](CC(C)C)C(=O)N[C@H](C(=O)NCC(=O)N[C@@H](CCC(=O)NCCCOCCOCCOCCCNC(=O)C[C@H](NC(=O)CCCCCCCCCCCCCCC(=O)O)C(=O)O)C(=O)O)CSCC(=O)N[C@@H](Cc2ccc(O)cc2)C(=O)N(C)[C@@H](C)C(=O)N[C@@H](CC(N)=O)C(=O)N2CCC[C@@H]2C(=O)N[C@@H](CN)C(=O)N[C@@H](CC(C)C)C(=O)N2C[C@@H](O)CC2C(=O)N[C@@H](Cc2c[nH]c3ccccc23)C(=O)N[C@@H](CCN)C(=O)N[C@@H](Cc2cn(CC(=O)O)c3ccccc23)C(=O)N1C (stereo partly drawn) [Example 11243] ({CH2CO}-Y[NMeA]N[dP][Dap]L[X19]W[Dab][Trp(1-CH2COOH)][NMeNle][NMeNle]LCGE(X18)-OH; thioether N-14) | 100 to 1600 nM
5 | CCCCCCCCCCC(=O)NCCCC[C@H](NC(=O)[C@H](CC(=O)O)NC(=O)CNC(=O)[C@@H]1CSCC(=O)N[C@@H](Cc2ccc(O)cc2)C(=O)N(C)[C@@H](C)C(=O)N[C@@H](CC(N)=O)C(=O)N2CCC[C@H]2C(=O)N[C@@H](CCN)C(=O)N[C@@H](CC(C)C)C(=O)N2C[C@H](O)C[C@H]2C(=O)N[C@@H](Cc2c[nH]c3ccccc23)C(=O)N[C@@H](CO)C(=O)N[C@@H](Cc2c[nH]c3ccccc23)C(=O)N(C)[C@@H](CCCC)C(=O)N(C)[C@@H](CCCC)C(=O)N[C@@H](CCCNC(=N)N)C(=O)N1)C(N)=O [Example 11005] ({CH2CO}-Y[NMeA]NP[Dab]L[Hyp]WSW[NMeNle][NMeNle]RCGDK(Undecanoyl)-NH2; thioether N-14) | 10 to 99 nM
6 | CCCC[C@H]1C(=O)N(C)[C@@H](CCCC)C(=O)N[C@@H](CC(C)C)C(=O)N[C@H](C(=O)NCC(=O)N[C@@H](CC(=O)NCCOCC(=O)NCC[C@H](NC(=O)CCCCCCCCCCCCCCCCC(=O)O)C(=O)O)C(=O)O)CSCC(=O)N[C@@H](Cc2ccc(O)cc2)C(=O)N2CCCC[C@H]2C(=O)N[C@@H](CC(N)=O)C(=O)N2CCC[C@H]2C(=O)N[C@@H](CN)C(=O)N[C@@H](CC(C)C)C(=O)N2C[C@H](O)C[C@H]2C(=O)N[C@@H](Cc2c[nH]c3ccccc23)C(=O)N[C@@H](CCN)C(=O)N[C@@H](Cc2cn(CC(=O)O)c3ccccc23)C(=O)N1C [Example 13159] ({CH2CO}-Y[Pip]NP[Dap]L[Hyp]W[Dab][Trp(1-CH2COOH)][NMeNle][NMeNle]LCG[βAsp][AEA]-X9; thioether N-14) | 0.3 to 9.9 nM
